Results: patent US12415794B2 (Edgewise Therapeutics, Inc., priority 2018, dated 2025)

Columns and labels:
[1] = target: skeletal myofibrils (myosin ATPase); assay: Skeletal Myofibril ATPase Assay; assay type: biochemical
Method in brief: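 Skeletal myofibril ATPase measured by PK-LDH coupled NADH depletion, absorbance 340 nm read every 1.5-2 min over 45 min. Max−min rate normalized to 1% DMSO vehicle as 100%; IC50 from four-parameter logistic fit with bottom ≥0. Cardiac myofibrils used as counter-screen.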

[2] = target: T1, cardiac myofibrils (myosin ATPase); assay: Cardiac Myofibril ATPase Assay (counter screen); assay type: biochemical; settings: myofibrils 1.0 mg/mL, KCl omitted
T1 construct: frozen myofibril pellets obtained from cardiac tissue; from tissue
Method in brief: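 Frozen cardiac myofibrils at 1.0 mg/mL final, KCl omitted, in a PK-LDH coupled ATPase assay; ADP production tracked as NADH loss by absorbance at 340 nm. Inhibition taken as reduced rate relative to vehicle controls, with IC50 derived.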

T1 sequence (P12883 whole entry): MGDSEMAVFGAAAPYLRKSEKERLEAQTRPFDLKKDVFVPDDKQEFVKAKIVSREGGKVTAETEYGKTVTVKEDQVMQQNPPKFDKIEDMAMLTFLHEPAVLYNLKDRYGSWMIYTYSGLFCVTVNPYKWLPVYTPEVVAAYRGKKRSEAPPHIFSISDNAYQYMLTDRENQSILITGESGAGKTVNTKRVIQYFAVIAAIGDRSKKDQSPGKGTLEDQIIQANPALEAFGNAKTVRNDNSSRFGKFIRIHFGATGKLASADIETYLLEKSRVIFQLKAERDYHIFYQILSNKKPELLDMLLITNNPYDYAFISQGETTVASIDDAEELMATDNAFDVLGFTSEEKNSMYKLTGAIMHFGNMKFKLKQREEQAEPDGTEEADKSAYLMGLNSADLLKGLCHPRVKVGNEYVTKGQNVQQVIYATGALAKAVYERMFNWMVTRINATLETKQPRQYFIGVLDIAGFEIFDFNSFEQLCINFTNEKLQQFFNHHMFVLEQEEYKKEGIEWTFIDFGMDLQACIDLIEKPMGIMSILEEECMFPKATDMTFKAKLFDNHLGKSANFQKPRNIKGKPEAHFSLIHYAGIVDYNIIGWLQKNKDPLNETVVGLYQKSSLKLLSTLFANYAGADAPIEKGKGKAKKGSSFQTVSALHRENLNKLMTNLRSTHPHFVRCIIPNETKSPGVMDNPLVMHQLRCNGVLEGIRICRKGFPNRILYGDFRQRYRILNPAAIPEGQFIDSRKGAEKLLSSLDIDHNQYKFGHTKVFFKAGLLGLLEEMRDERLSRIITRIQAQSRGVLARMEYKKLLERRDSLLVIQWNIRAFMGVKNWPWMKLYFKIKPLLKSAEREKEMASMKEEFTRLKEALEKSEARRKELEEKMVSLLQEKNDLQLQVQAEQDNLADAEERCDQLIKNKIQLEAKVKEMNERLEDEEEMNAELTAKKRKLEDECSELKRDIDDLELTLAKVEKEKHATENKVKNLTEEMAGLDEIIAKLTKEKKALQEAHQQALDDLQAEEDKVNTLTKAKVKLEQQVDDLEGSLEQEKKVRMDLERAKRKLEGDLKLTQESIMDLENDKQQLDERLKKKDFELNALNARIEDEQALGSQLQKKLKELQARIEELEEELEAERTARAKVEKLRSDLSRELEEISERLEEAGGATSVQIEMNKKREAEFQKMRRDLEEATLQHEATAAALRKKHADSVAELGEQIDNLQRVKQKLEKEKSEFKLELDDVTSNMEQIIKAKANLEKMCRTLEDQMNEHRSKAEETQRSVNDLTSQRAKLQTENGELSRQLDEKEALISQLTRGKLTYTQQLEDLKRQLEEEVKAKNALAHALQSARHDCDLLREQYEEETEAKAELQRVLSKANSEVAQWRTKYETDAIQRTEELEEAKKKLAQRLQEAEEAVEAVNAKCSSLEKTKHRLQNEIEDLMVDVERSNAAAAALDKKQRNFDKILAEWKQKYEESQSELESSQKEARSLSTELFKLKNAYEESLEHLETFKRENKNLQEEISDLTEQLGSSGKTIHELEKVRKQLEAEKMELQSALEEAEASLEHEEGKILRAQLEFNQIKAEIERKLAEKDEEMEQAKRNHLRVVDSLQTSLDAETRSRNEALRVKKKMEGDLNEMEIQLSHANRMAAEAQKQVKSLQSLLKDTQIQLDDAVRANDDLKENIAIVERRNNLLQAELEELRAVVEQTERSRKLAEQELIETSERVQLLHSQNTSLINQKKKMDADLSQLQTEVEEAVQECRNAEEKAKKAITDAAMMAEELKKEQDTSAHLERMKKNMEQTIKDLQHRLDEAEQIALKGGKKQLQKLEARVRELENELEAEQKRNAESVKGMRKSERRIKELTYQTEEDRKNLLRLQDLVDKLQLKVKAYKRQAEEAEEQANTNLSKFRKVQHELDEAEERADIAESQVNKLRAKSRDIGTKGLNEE
T1 sequence (P08590 whole entry partner): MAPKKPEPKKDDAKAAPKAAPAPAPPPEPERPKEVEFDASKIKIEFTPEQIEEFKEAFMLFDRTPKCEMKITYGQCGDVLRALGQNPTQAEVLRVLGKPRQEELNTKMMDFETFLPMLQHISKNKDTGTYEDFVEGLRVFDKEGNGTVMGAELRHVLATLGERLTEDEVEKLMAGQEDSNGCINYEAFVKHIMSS
T1 sequence (P10916 whole entry partner): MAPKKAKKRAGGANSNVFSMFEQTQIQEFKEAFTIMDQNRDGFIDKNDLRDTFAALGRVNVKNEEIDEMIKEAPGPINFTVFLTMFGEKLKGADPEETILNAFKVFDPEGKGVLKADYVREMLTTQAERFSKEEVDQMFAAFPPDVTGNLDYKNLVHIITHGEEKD

| IC50 ([1]; Table 4C) [µM] | IC50 ([2]; Table 5C) [µM] | Structure (SMILES) | other results |
| --- | --- | --- | --- |
| – | – | CCC(C)(C)NC(=O)Cn1nc(-c2ccc(OC(F)F)nc2)ccc1=O [Compound I-20, 2-(3-(6-(difluoromethoxy)pyridin-3-yl)-6-oxopyridazin-1(6H)-yl)-N-(tert-pentyl)acetamide] | IC50 ([1]; Table 4A): 10 to 100 µM; IC50 ([2]; Table 5A): > 100 µM |
| 10 to 100 | > 100 | O=C(Cn1nc(-c2ccc(F)cc2)ccc1=O)NCCc1c[nH]c2ccccc12 [IIIc-44, N-(2-(1H-indol-3-yl)ethyl)-2-(3-(4-fluorophenyl)-6-oxopyridazin-1(6H)-yl)acetamide] | – |
| – | – | O=C(Cn1nc(-c2ccc(OC(F)F)nc2)ccc1=O)NC1CCC1 [Compound I-4, N-cyclobutyl-2-(3-(6-(difluoromethoxy)pyridin-3-yl)-6-oxopyridazin-1(6H)-yl)acetamide] | IC50 ([1]; Table 4A): < 10 µM; IC50 ([2]; Table 5A): > 100 µM |
| – | – | CCNC(=O)Cn1nc(-c2ccc(SC)nc2)ccc1=O [Compound I-63, N-ethyl-2-(3-(6-(methylthio)pyridin-3-yl)-6-oxopyridazin-1(6H)-yl)acetamide] | IC50 ([1]; Table 4A): < 10 µM; IC50 ([2]; Table 5A): > 100 µM |
| – | – | CCNC(=O)Cn1nc(-c2ccc(OC(F)F)cc2)c(C)cc1=O [II-19, 2-(3-(4-(difluoromethoxy)phenyl)-4-methyl-6-oxopyridazin-1(6H)-yl)-N-ethylacetamide] | IC50 ([1]; Table 4B): 10 to 100 µM; IC50 ([2]; Table 5B): > 100 µM |
| – | – | C[C@H](NC(=O)Cn1nc(-c2ccc(OC(F)F)nc2)ccc1=O)c1ccnn1C [Compound I-29, (S)-2-(3-(6-(difluoromethoxy)pyridin-3-yl)-6-oxopyridazin-1(6H)-yl)-N-(1-(1-methyl-1H-pyrazol-5-yl)ethyl)acetamide] | IC50 ([1]; Table 4A): > 100 µM; IC50 ([2]; Table 5A): > 100 µM |
| > 100 | > 100 | COc1ccc(-c2ccc(=O)n(CC(=O)NC3CCCCC3)n2)c(F)c1 [IIIb-60, N-cyclohexyl-2-(3-(2-fluoro-4-methoxyphenyl)-6-oxopyridazin-1(6H)-yl)acetamide] | – |
| 10 to 100 | > 100 | CC[C@H](C)NC(=O)Cn1nc(-c2ccccc2)ccc1=O [IIIc-57, (S)-N-(sec-butyl)-2-(6-oxo-3-phenylpyridazin-1(6H)-yl)acetamide] | – |
| 10 to 100 | > 100 | Cc1ccc(-c2ccc(=O)n(CC(=O)NC3CCCCCC3)n2)cc1 [IIIc-4, N-cycloheptyl-2-(6-oxo-3-(p-tolyl)pyridazin-1(6H)-yl)acetamide] | – |
| > 100 | > 100 | COc1ccc(-c2ccc(=O)n(CC(=O)NC3CCCCC3)n2)cc1 [IIIb-41, N-cyclohexyl-2-(3-(4-methoxyphenyl)-6-oxopyridazin-1(6H)-yl)acetamide] | – |
| < 10 | > 100 | COc1ccc(-c2ccc(=O)n(CC(=O)Nc3ccc(Cl)cc3Cl)n2)cc1 [IIIb-11, N-(2,4-dichlorophenyl)-2-(3-(4-methoxyphenyl)-6-oxopyridazin-1(6H)-yl)acetamide] | – |
| – | – | CCCNC(=O)Cn1nc(-c2ccc(OC(F)F)cc2)ccc1=O [II-12, 2-(3-(4-(difluoromethoxy)phenyl)-6-oxopyridazin-1(6H)-yl)-N-propylacetamide] | IC50 ([1]; Table 4B): 10 to 100 µM; IC50 ([2]; Table 5B): > 100 µM |
| > 100 | > 100 | COc1ccc(-c2ccc(=O)n(CC(=O)NCCc3ccc(OC)c(OC)c3)n2)cc1 [IIIb-51, N-(3,4-dimethoxyphenethyl)-2-(3-(4-methoxyphenyl)-6-oxopyridazin-1(6H)-yl)acetamide] | – |
| < 10 | > 100 | COc1ccccc1NC(=O)Cn1nc(-c2ccc(Cl)cc2)ccc1=O [IIIc-23, 2-(3-(4-chlorophenyl)-6-oxopyridazin-1(6H)-yl)-N-(2-methoxyphenyl)acetamide] | – |
| – | – | O=C(Cn1nc(-c2ccc(OC(F)F)cc2)ccc1=O)NCc1ccccc1Cl [II-3, N-(2-chlorobenzyl)-2-(3-(4-(difluoromethoxy)phenyl)-6-oxopyridazin-1(6H)-yl)acetamide] | IC50 ([1]; Table 4B): < 10 µM; IC50 ([2]; Table 5B): > 100 µM |
| > 100 | > 100 | COc1ccc(-c2ccc(=O)n(CC(=O)NC[C@@H]3CC4C=CC3C4)n2)cc1 (stereo partly drawn) [IIIb-39, N-(((2R)-bicyclo[2.2.1]hept-5-en-2-yl)methyl)-2-(3-(4-methoxyphenyl)-6-oxopyridazin-1(6H)-yl)acetamide] | – |
| – | – | O=C(Cn1nc(-c2ccc(OC(F)F)nc2)ccc1=O)NCc1cccc(Cl)c1 [Compound I-76, N-(3-chlorobenzyl)-2-(3-(6-(difluoromethoxy)pyridin-3-yl)-6-oxopyridazin-1(6H)-yl)acetamide] | IC50 ([1]; Table 4A): 10 to 100 µM; IC50 ([2]; Table 5A): > 100 µM |
| > 100 | > 100 | COc1ccc(-c2ccc(=O)n(CC(=O)NCc3cnccn3)n2)cc1 [IIIa-28, 2-(3-(4-methoxyphenyl)-6-oxopyridazin-1(6H)-yl)-N-(pyrazin-2-ylmethyl)acetamide] | – |
| 10 to 100 | > 100 | COc1ccc(-c2ccc(=O)n(CC(=O)NCc3ccccc3)n2)cc1 [IIIb-20, N-benzyl-2-(3-(4-methoxyphenyl)-6-oxopyridazin-1(6H)-yl)acetamide] | – |
| 10 to 100 | > 100 | O=C(Cn1nc(-c2ccccc2)ccc1=O)Nc1ccccc1Cl [IIIc-56, N-(2-chlorophenyl)-2-(6-oxo-3-phenylpyridazin-1(6H)-yl)acetamide] | – |
| 10 to 100 | > 100 | COc1ccc(-c2ccc(=O)n(CC(=O)NCc3ccccc3Cl)n2)cc1F [IIIa-24, N-(2-chlorobenzyl)-2-(3-(3-fluoro-4-methoxyphenyl)-6-oxopyridazin-1(6H)-yl)acetamide] | – |
| < 10 | > 100 | COc1ccc(-c2ccc(=O)n(CC(=O)NCc3ccccc3C)n2)cc1 [IIIa-16, 2-(3-(4-methoxyphenyl)-6-oxopyridazin-1(6H)-yl)-N-(2-methylbenzyl) acetamide] | – |
| – | – | CC(C)CNC(=O)Cn1nc(-c2ccc(OC(F)F)cc2)ccc1=O [II-13, 2-(3-(4-(difluoromethoxy)phenyl)-6-oxopyridazin-1(6H)-yl)-N-isobutylacetamide] | IC50 ([1]; Table 4B): 10 to 100 µM; IC50 ([2]; Table 5B): > 100 µM |
| – | – | O=C(Cn1nc(-c2ccc(OCC(F)(F)F)cc2)ccc1=O)NCc1ccc[nH]c1=O [II-26, N-((2-oxo-1,2-dihydropyridin-3-yl)methyl)-2-(6-oxo-3-(4-(2,2,2-trifluoroethoxy)phenyl)pyridazin-1(6H)-yl)acetamide] | IC50 ([1]; Table 4B): 10 to 100 µM; IC50 ([2]; Table 5B): > 100 µM |
| < 10 | > 100 | CCNC(=O)Cn1nc(-c2ccc(OC)cc2)ccc1=O [IIIa-3, N-ethyl-2-(3-(4-methoxyphenyl)-6-oxopyridazin-1(6H)-yl)acetamide] | – |
| > 100 | > 100 | COc1ccc(-c2ccc(=O)n(CC(=O)NCC3CCOCC3)n2)cc1 [IIIa-29, 2-(3-(4-methoxyphenyl)-6-oxopyridazin-1(6H)-yl)-N-((tetrahydro-2H-pyran-4-yl)methyl) acetamide] | – |
| < 10 | > 100 | COc1ccc(-c2ccc(=O)n(CC(=O)Nc3cc(Cl)ccc3Cl)n2)cc1 [IIIb-10, N-(2,5-dichlorophenyl)-2-(3-(4-methoxyphenyl)-6-oxopyridazin-1(6H)-yl)acetamide] | – |
| 10 to 100 | > 100 | COc1ccc(-c2ccc(=O)n(CC(=O)NC3(c4ccccc4Cl)CC3)n2)cc1 [IIIa-20, N-(1-(2-chlorophenyl)cyclopropyl)-2-(3-(4-methoxyphenyl)-6-oxopyridazin-1(6H)-yl)acetamide] | – |
